Primed or numbered codes have the meaning given here. The star is where a group is joined. 5FAM = O=C1OC2(c3ccc(O)cc3Oc3cc(O)ccc32)c2ccc(C(=O)*)cc21; MethylRed = CN(C)c1ccc(/N=N/c2ccccc2C(=O)*)cc1; PEG2′ = PEG spacer unit (glycol linker)
Key:
[1] = test system: MMP-9; assay: Enzyme assay, fold change in probe fluorescence over background with MMP-9; format: biochemical, human; conditions: FRET monomers; recombinant human catalytic domain MMP at 30 nM; ex/em 485/528 nm
Description: A library of probes (listed in Table 2 below) containing FAM (Carboxyfluorescein) as the fluorophore (donor) and MethylRed (MR) as the quencher (acceptor) and a variety of peptide sequences was synthesized by manual standard solid-phase Fmoc peptide chemistry (described below).
(§1) Enzyme specificity of the lead probes with exogenous enzymes was tested using a multiwell plate fluorimeter at excitation/emission 485/528 nm (Table 3). Recombinant human catalytic domain MMPs-1, -2, -3, -7, -8, -9, -10, -11, -12, -13 were used at 30 nM. Cleavage site for each sequence is indicated in italics.
(§2) The different compounds were also evaluated according to the fold change in fluorescent signal in presence of MMP-9 and MMP-13, and the results are shown in Table 7. From this comparison, the FRET dendrimers comprising SEQ ID NO.1 and SEQ ID NO.7 (AMF-106 and SVC-186) together with the 9Dendrimer comprising SEQ ID NO.7 (SVC-196) were chosen for further evaluation. These dendrimers are shown in FIG. 7, probe A (AMF-106), probe B (SVC-186) and probe C (SVC-196).
(§3) The enzyme assays were run in a 384-well format on a PCR opaque microplate (Thermo Scientific). All dilutions and reactions were prepared in MMP buffer (50 mM Tris, 10 mM CaCl2, 0.15M NaCl, 0.05% Brij-35, pH 7). Proteolytic activity was determined by calculating the fold change in fluorescence over background signal provided by the corresponding dilution of the probe and/or inhibitors with exogenous enzymes using a-multiwell plate fluorimeter (Synergy H1 Hybrid Reader, BioTek instruments Ltd) at excitation/emission 485/528 nm. Recombinant human MMPs (Catalytic domain MMP-1, -2, -3, -7, -8, -9, -10, -11, -12, -13 (Enzo Life Sciences) and Full-length MMP-2, -9, -12 and -13 (Merck/Millipore)) were used at 30 nM. Pro-MMP-13 (R & D Systems) was activated by incubating with 1 mM 4-aminophenylmercunc acetate (APMA) for 2 hrs at 37° C. Human neutrophil elastase (Elastase Product Company, used at 2.5 ug/ml), neutrophil lysate (lysed human neutrophils), and recombinant human Thrombin (Sigma-Aldrich, used at 5 U/ml), Plasmin (Sigma-Aldrich, used at 30 nM) and Factor Xa (Sigma-Aldrich, used at 0.5 μM) were used to identify the lead molecular probe sequences. For inhibition assays, enzyme and inhibitor were pre-incubated for 1 hr at 37° C. before the addition of molecular probe.

[2] = test system: MMP-2; assay: Enzyme assay, fold change in probe fluorescence over background with MMP-2; format: biochemical; conditions: FRET monomers; recombinant human catalytic domain MMP at 30 nM; ex/em 485/528 nm
Description: as §1, §3

[3] = target: T1, Thrombin (Homo sapiens, UniProt P00734); assay: Enzyme assay, fold change in probe fluorescence with Thrombin; format: biochemical; conditions: recombinant human Thrombin 5 U/ml; ex/em 485/528 nm
T1 construct: purchased Sigma-Aldrich
Description: as §1, §3

[4] = target: T2, MMP-12 (Homo sapiens, UniProt P39900); assay: Enzyme assay, fold change in probe fluorescence over background with MMP-12; format: biochemical; conditions: FRET monomers; recombinant human catalytic domain MMP at 30 nM; ex/em 485/528 nm
T2 construct: Recombinant human catalytic domain MMPs-1, -2, -3, -7, -8, -9, -10, -11, -12, -13 were used at 30 nM; purchased Enzo Life Sciences
Description: as §1, §3

[5] = target: MMP-13 (Homo sapiens, UniProt P45452); assay: Enzyme assay, fold change in probe fluorescence over background with MMP-13; format: biochemical; design: purchased Enzo Life Sciences (catalytic domain); Merck/Millipore (full-length); conditions: FRET monomers; recombinant human catalytic domain MMP at 30 nM; ex/em 485/528 nm
Description: as §1, §2, §3

T2 sequence (P39900 106-263 limits assumed): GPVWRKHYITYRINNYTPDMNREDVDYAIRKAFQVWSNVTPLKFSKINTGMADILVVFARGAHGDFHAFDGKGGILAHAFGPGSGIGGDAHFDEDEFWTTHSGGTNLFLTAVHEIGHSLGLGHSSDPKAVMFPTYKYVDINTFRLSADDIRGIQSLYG
Sequence of MMP-2 (P08253 with tags, fused parts or gaps DEL222-396 limits assumed): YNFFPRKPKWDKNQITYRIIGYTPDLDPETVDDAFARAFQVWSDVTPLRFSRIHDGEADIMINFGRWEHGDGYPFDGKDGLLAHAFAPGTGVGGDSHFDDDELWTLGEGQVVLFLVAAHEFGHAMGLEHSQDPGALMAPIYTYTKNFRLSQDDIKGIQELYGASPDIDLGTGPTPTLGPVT

| Substance | MMP-9 (39.0 kDa), fold change in fluorescence over background [1] | MMP-2 (20.3 kDa), fold change in fluorescence over background [2] | Inflammatory mediators: Thrombin, fold change in fluorescence over background [3] | MMP-12 (20.3 kDa), fold change in fluorescence over background [4] | MMP-13 (20.4 kDa), fold change in fluorescence over background [5] |
| --- | --- | --- | --- | --- | --- |
| FAM-PEG2-G-P-K-G-I-K-G-K(MR)-NH2 ({5FAM-PEG2′}-GPKGIKGK(MethylRed)-NH2) [SVC-26] | 4.22 | 2.10 | 1.37 | 1.54 | 9.33 |
| FAM-PEG2-G-P-K-G-L-K-G-K(MR)-NH2 [SVC-24] | 3.50 | 1.98 | 1.31 | 2.34 | 9.30 |
| FAM-PEG2-G-P-K-G-Nle-K-G-K(MR)-NH2 [SVC-27] | 4.53 | 2.70 | 1.48 | 1.46 | 11.75 |
| FAM-PEG2-P-Cha-G-M-F-G-K(MR)-NH2 [SVC-15] | 5.89 | 3.27 | 0.94 | 2.45 | 11.75 |
| FAM-PEG2-P-Cha-G-M-H-G-K(MR)-NH2 [SVC-21] | 7.53 | 4.01 | 0.97 | 3.05 | 12.93 |
| FAM-PEG2-P-Cha-G-M-K-G-K(MR)-NH2 [SVC-22] | 8.21 | 4.24 | 1.02 | 2.61 | 14.88 |
| FAM-PEG2-P-Cha-G-M-K-βA-K(MR)-NH2 [SVC-20] | 9.61 | 5.22 | 1.00 | 3.21 | 15.9 |
| FAM-PEG2-P-Cha-G-M-W-G-K(MR)-NH2 [SVC-17] | 5.07 | 2.59 | 1.05 | 2.59 | 6.5 |
| FAM-PEG2-P-Cha-G-M-Y(Me)-G-K(MR)-NH2 [SVC-18] | 4.94 | 2.54 | 0.97 | 2.15 | 10.04 |
| FAM-PEG2-P-Cha-G-M-Y-G-K(MR)-NH2 [SVC-19] | 6.90 | 4.07 | 1.04 | 2.87 | 11.26 |
